Columns and labels:
Assay in all cases: relative viability (nuclei count vs DMSO), 5 days (fraction); higher = more cells survive
MK-8033 + Crizotinib = compound: Cn1cc(-c2cnc3ccc4ccc(CS(=O)(=O)NCc5ccccn5)cc4c(=O)c3c2)cn1 [MK-8033] + C[C@@H](Oc1cc(-c2cnn(C3CCNCC3)c2)cnc1N)c1c(Cl)ccc(F)c1Cl [Crizotinib] (partner 1 µM)
Outline: (§1)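 Relative viability was taken as the ratio of nuclei in treated wells to nuclei in vehicle wells. Lung cancer cell lines in 1536-well plates received compounds by pin tool one day after seeding, either one drug alone or a fixed anchor-drug dose plus five library-drug doses (not always all listed) in √10 steps. Nuclei were counted on 4× images after 5 days of treatment, and values are medians of duplicate plates.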

MK-8033 + OSI-027 = compound: Cn1cc(-c2cnc3ccc4ccc(CS(=O)(=O)NCc5ccccn5)cc4c(=O)c3c2)cn1 [MK-8033] + COc1cccc2cc(-c3nc([C@H]4CC[C@H](C(=O)O)CC4)n4ncnc(N)c34)[nH]c12 [OSI-027] (partner 0.5 µM)
Outline: as §1

RU-SKI 43 + Vorinostat = compound: CC[C@@H](C)CNCC(=O)N1CCC2=C([C@@H]1COC3=CC=CC(=C3)C)C=CS2 [RU-SKI 43] + O=C(CCCCCCC(=O)Nc1ccccc1)NO [Vorinostat] (partner 1 µM)
Outline: as §1

NCI-H1975
relative viability (MK-8033 + Crizotinib; first compound 0.02 µM): 0.896
relative viability (MK-8033 + Crizotinib; first compound 0.06325 µM): 0.924
relative viability (MK-8033 + Crizotinib; first compound 0.2 µM): 0.934
relative viability (MK-8033 + Crizotinib; first compound 0.6325 µM): 1.06
relative viability (MK-8033 + Crizotinib; first compound 2 µM): 0.952
relative viability (MK-8033 + OSI-027; first compound 0.02 µM): 0.692
relative viability (MK-8033 + OSI-027; first compound 0.06325 µM): 0.645
relative viability (MK-8033 + OSI-027; first compound 0.2 µM): 0.563
relative viability (MK-8033 + OSI-027; first compound 2 µM): 0.571
relative viability (RU-SKI 43 + Vorinostat; first compound 0.1 µM): 0.736
relative viability (RU-SKI 43 + Vorinostat; first compound 0.3162 µM): 0.781
relative viability (RU-SKI 43 + Vorinostat; first compound 1 µM): 0.749
relative viability (RU-SKI 43 + Vorinostat; first compound 3.162 µM): 0.723
relative viability (RU-SKI 43 + Vorinostat; first compound 10 µM): 0.618

NCI-H1755
relative viability (MK-8033 + Crizotinib; first compound 0.02 µM): 0.811
relative viability (MK-8033 + Crizotinib; first compound 0.06325 µM): 0.782
relative viability (MK-8033 + Crizotinib; first compound 0.2 µM): 0.878
relative viability (MK-8033 + Crizotinib; first compound 0.6325 µM): 0.847
relative viability (MK-8033 + Crizotinib; first compound 2 µM): 0.803
relative viability (MK-8033 + OSI-027; first compound 0.02 µM): 0.625
relative viability (MK-8033 + OSI-027; first compound 0.06325 µM): 0.676
relative viability (MK-8033 + OSI-027; first compound 0.2 µM): 0.681
relative viability (MK-8033 + OSI-027; first compound 0.6325 µM): 0.717
relative viability (MK-8033 + OSI-027; first compound 2 µM): 0.822
relative viability (RU-SKI 43 + Vorinostat; first compound 0.1 µM): 0.746
relative viability (RU-SKI 43 + Vorinostat; first compound 0.3162 µM): 0.862
relative viability (RU-SKI 43 + Vorinostat; first compound 1 µM): 0.848
relative viability (RU-SKI 43 + Vorinostat; first compound 3.162 µM): 0.809
relative viability (RU-SKI 43 + Vorinostat; first compound 10 µM): 0.859

NCI-H2023
relative viability (MK-8033 + Crizotinib; first compound 0.02 µM): 0.674
relative viability (MK-8033 + Crizotinib; first compound 0.06325 µM): 0.559
relative viability (MK-8033 + Crizotinib; first compound 0.2 µM): 0.554
relative viability (MK-8033 + Crizotinib; first compound 0.6325 µM): 0.554
relative viability (MK-8033 + Crizotinib; first compound 2 µM): 0.586
relative viability (MK-8033 + OSI-027; first compound 0.02 µM): 0.432
relative viability (MK-8033 + OSI-027; first compound 0.06325 µM): 0.288
relative viability (MK-8033 + OSI-027; first compound 0.2 µM): 0.335
relative viability (MK-8033 + OSI-027; first compound 0.6325 µM): 0.319
relative viability (MK-8033 + OSI-027; first compound 2 µM): 0.223
relative viability (RU-SKI 43 + Vorinostat; first compound 0.1 µM): 0.742
relative viability (RU-SKI 43 + Vorinostat; first compound 0.3162 µM): 0.918
relative viability (RU-SKI 43 + Vorinostat; first compound 1 µM): 0.772
relative viability (RU-SKI 43 + Vorinostat; first compound 3.162 µM): 0.815
relative viability (RU-SKI 43 + Vorinostat; first compound 10 µM): 0.602

EKVX
relative viability (MK-8033 + Crizotinib; first compound 0.02 µM): 0.966
relative viability (MK-8033 + Crizotinib; first compound 0.06325 µM): 0.735
relative viability (MK-8033 + Crizotinib; first compound 0.2 µM): 0.799
relative viability (MK-8033 + Crizotinib; first compound 0.6325 µM): 0.908
relative viability (MK-8033 + Crizotinib; first compound 2 µM): 0.601
relative viability (MK-8033 + OSI-027; first compound 0.02 µM): 0.731
relative viability (MK-8033 + OSI-027; first compound 0.06325 µM): 0.665
relative viability (MK-8033 + OSI-027; first compound 0.2 µM): 0.637
relative viability (MK-8033 + OSI-027; first compound 0.6325 µM): 0.642
relative viability (MK-8033 + OSI-027; first compound 2 µM): 0.723
relative viability (RU-SKI 43 + Vorinostat; first compound 0.1 µM): 0.658
relative viability (RU-SKI 43 + Vorinostat; first compound 0.3162 µM): 0.614
relative viability (RU-SKI 43 + Vorinostat; first compound 1 µM): 0.707
relative viability (RU-SKI 43 + Vorinostat; first compound 3.162 µM): 0.643
relative viability (RU-SKI 43 + Vorinostat; first compound 10 µM): 0.632

EPLC-272H
relative viability (MK-8033 + Crizotinib; first compound 0.02 µM): 1.09
relative viability (MK-8033 + Crizotinib; first compound 0.2 µM): 0.88
relative viability (MK-8033 + Crizotinib; first compound 0.6325 µM): 0.843
relative viability (MK-8033 + Crizotinib; first compound 2 µM): 0.866
relative viability (MK-8033 + OSI-027; first compound 0.02 µM): 0.271
relative viability (MK-8033 + OSI-027; first compound 0.06325 µM): 0.291
relative viability (MK-8033 + OSI-027; first compound 0.2 µM): 0.299
relative viability (MK-8033 + OSI-027; first compound 0.6325 µM): 0.306
relative viability (MK-8033 + OSI-027; first compound 2 µM): 0.276
relative viability (RU-SKI 43 + Vorinostat; first compound 0.1 µM): 0.467
relative viability (RU-SKI 43 + Vorinostat; first compound 0.3162 µM): 0.384
relative viability (RU-SKI 43 + Vorinostat; first compound 1 µM): 0.426
relative viability (RU-SKI 43 + Vorinostat; first compound 3.162 µM): 0.401
relative viability (RU-SKI 43 + Vorinostat; first compound 10 µM): 0.31

LCLC-97TM1
relative viability (MK-8033 + Crizotinib; first compound 0.02 µM): 0.393
relative viability (MK-8033 + Crizotinib; first compound 0.06325 µM): 0.261
relative viability (MK-8033 + Crizotinib; first compound 0.2 µM): 0.508
relative viability (MK-8033 + Crizotinib; first compound 0.6325 µM): 0.383
relative viability (MK-8033 + Crizotinib; first compound 2 µM): 0.379
relative viability (MK-8033 + OSI-027; first compound 0.02 µM): 0.519
relative viability (MK-8033 + OSI-027; first compound 0.06325 µM): 0.456
relative viability (MK-8033 + OSI-027; first compound 0.2 µM): 0.431
relative viability (MK-8033 + OSI-027; first compound 0.6325 µM): 0.592
relative viability (MK-8033 + OSI-027; first compound 2 µM): 0.568
relative viability (RU-SKI 43 + Vorinostat; first compound 0.1 µM): 0.741
relative viability (RU-SKI 43 + Vorinostat; first compound 0.3162 µM): 0.705
relative viability (RU-SKI 43 + Vorinostat; first compound 1 µM): 0.823
relative viability (RU-SKI 43 + Vorinostat; first compound 3.162 µM): 0.629
relative viability (RU-SKI 43 + Vorinostat; first compound 10 µM): 0.669

NCI-H2085
relative viability (MK-8033 + Crizotinib; first compound 0.02 µM): 0.873
relative viability (MK-8033 + Crizotinib; first compound 0.06325 µM): 0.804
relative viability (MK-8033 + Crizotinib; first compound 0.2 µM): 0.867
relative viability (MK-8033 + Crizotinib; first compound 0.6325 µM): 0.801
relative viability (MK-8033 + Crizotinib; first compound 2 µM): 0.977
relative viability (MK-8033 + OSI-027; first compound 0.02 µM): 0.762
relative viability (MK-8033 + OSI-027; first compound 0.06325 µM): 0.728
relative viability (MK-8033 + OSI-027; first compound 0.2 µM): 0.653
relative viability (MK-8033 + OSI-027; first compound 0.6325 µM): 0.643
relative viability (MK-8033 + OSI-027; first compound 2 µM): 0.7
relative viability (RU-SKI 43 + Vorinostat; first compound 0.1 µM): 0.705
relative viability (RU-SKI 43 + Vorinostat; first compound 0.3162 µM): 0.659
relative viability (RU-SKI 43 + Vorinostat; first compound 1 µM): 0.808
relative viability (RU-SKI 43 + Vorinostat; first compound 3.162 µM): 0.793
relative viability (RU-SKI 43 + Vorinostat; first compound 10 µM): 0.726

COR-L23
relative viability (MK-8033 + Crizotinib; first compound 0.02 µM): 0.58
relative viability (MK-8033 + Crizotinib; first compound 0.06325 µM): 0.721
relative viability (MK-8033 + Crizotinib; first compound 0.2 µM): 0.489
relative viability (MK-8033 + Crizotinib; first compound 0.6325 µM): 0.73
relative viability (MK-8033 + Crizotinib; first compound 2 µM): 0.506
relative viability (MK-8033 + OSI-027; first compound 0.02 µM): 0.814
relative viability (MK-8033 + OSI-027; first compound 0.06325 µM): 0.743
relative viability (MK-8033 + OSI-027; first compound 0.2 µM): 0.701
relative viability (MK-8033 + OSI-027; first compound 0.6325 µM): 0.749
relative viability (MK-8033 + OSI-027; first compound 2 µM): 0.736
relative viability (RU-SKI 43 + Vorinostat; first compound 0.1 µM): 0.427
relative viability (RU-SKI 43 + Vorinostat; first compound 0.3162 µM): 0.376
relative viability (RU-SKI 43 + Vorinostat; first compound 1 µM): 0.532
relative viability (RU-SKI 43 + Vorinostat; first compound 3.162 µM): 0.499
relative viability (RU-SKI 43 + Vorinostat; first compound 10 µM): 0.387

HCC-15
relative viability (MK-8033 + Crizotinib; first compound 0.02 µM): 0.778
relative viability (MK-8033 + Crizotinib; first compound 0.06325 µM): 0.796
relative viability (MK-8033 + Crizotinib; first compound 0.2 µM): 0.762
relative viability (MK-8033 + Crizotinib; first compound 0.6325 µM): 0.816
relative viability (MK-8033 + Crizotinib; first compound 2 µM): 0.808
relative viability (MK-8033 + OSI-027; first compound 0.02 µM): 0.692
relative viability (MK-8033 + OSI-027; first compound 0.06325 µM): 0.588
relative viability (MK-8033 + OSI-027; first compound 0.2 µM): 0.64
relative viability (MK-8033 + OSI-027; first compound 0.6325 µM): 0.648
relative viability (MK-8033 + OSI-027; first compound 2 µM): 0.656
relative viability (RU-SKI 43 + Vorinostat; first compound 0.1 µM): 0.808
relative viability (RU-SKI 43 + Vorinostat; first compound 0.3162 µM): 0.932
relative viability (RU-SKI 43 + Vorinostat; first compound 1 µM): 0.881
relative viability (RU-SKI 43 + Vorinostat; first compound 3.162 µM): 0.839
relative viability (RU-SKI 43 + Vorinostat; first compound 10 µM): 0.869

RERF-LC-KJ
relative viability (MK-8033 + Crizotinib; first compound 0.02 µM): 0.867
relative viability (MK-8033 + Crizotinib; first compound 0.06325 µM): 0.849
relative viability (MK-8033 + Crizotinib; first compound 0.2 µM): 0.769
relative viability (MK-8033 + Crizotinib; first compound 0.6325 µM): 0.825
relative viability (MK-8033 + Crizotinib; first compound 2 µM): 0.79
relative viability (MK-8033 + OSI-027; first compound 0.02 µM): 0.554
relative viability (MK-8033 + OSI-027; first compound 0.06325 µM): 0.535
relative viability (MK-8033 + OSI-027; first compound 0.2 µM): 0.531
relative viability (MK-8033 + OSI-027; first compound 0.6325 µM): 0.521
relative viability (MK-8033 + OSI-027; first compound 2 µM): 0.509
relative viability (RU-SKI 43 + Vorinostat; first compound 0.1 µM): 0.695
relative viability (RU-SKI 43 + Vorinostat; first compound 0.3162 µM): 0.699
relative viability (RU-SKI 43 + Vorinostat; first compound 1 µM): 0.654
relative viability (RU-SKI 43 + Vorinostat; first compound 3.162 µM): 0.702
relative viability (RU-SKI 43 + Vorinostat; first compound 10 µM): 0.546

— the supplement of paper PMC10307832
